This is an account of results in article PMC12586182 (Frontiers in Oncology, 2025).

What all share (test): Kinase panel profiling at 1 µmol/L (mobility shift assay, Carna)
What all share (type): biochemical
What all share (settings): 1 µmol/L of BTK inhibitor

The target in one assay is T1, DDR2 (Homo sapiens, UniProt Q16832).
T1 construct: purchased Carna Biosciences
T1 sequence (Q16832 22-855): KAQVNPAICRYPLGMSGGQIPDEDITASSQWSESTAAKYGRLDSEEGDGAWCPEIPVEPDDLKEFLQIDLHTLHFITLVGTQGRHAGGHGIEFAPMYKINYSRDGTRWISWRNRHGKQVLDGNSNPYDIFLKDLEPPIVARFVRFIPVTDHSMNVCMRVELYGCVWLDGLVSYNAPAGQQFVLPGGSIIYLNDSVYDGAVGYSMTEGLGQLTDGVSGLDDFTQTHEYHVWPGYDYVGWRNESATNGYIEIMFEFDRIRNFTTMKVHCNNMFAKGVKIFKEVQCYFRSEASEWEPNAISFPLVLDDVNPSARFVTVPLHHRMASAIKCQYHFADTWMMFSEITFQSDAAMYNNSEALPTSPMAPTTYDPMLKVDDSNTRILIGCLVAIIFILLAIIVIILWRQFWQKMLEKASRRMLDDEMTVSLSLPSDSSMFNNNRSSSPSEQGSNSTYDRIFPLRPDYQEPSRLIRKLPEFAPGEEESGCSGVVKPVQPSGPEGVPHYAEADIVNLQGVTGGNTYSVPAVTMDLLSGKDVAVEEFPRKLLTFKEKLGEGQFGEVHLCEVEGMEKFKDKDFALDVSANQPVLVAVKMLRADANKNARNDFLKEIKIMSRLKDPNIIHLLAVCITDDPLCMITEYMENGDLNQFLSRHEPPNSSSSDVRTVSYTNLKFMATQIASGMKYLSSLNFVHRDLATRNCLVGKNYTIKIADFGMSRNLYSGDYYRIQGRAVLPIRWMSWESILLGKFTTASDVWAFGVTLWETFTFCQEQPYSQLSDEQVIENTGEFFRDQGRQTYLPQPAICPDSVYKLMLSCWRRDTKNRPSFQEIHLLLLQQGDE

The target of the next assay is T2, FYN [isoform b] (Homo sapiens, UniProt P06241).
T2 construct: purchased Carna Biosciences

The next assay deals with T3, IGF1R (Homo sapiens, UniProt P08069).
T3 construct: purchased Carna Biosciences

A further assay deals with T4, LYNb (Homo sapiens, UniProt P07948).
T4 construct: purchased Carna Biosciences

The next assay addresses T5, RET (Homo sapiens, UniProt P07949).
T5 construct: purchased Carna Biosciences

The next assay deals with T6, TIE2 (Homo sapiens, UniProt Q02763).
T6 construct: purchased Carna Biosciences

The target in another assay is T7, TNK1 (Homo sapiens, UniProt Q13470).
T7 construct: purchased Carna Biosciences
T7 sequence (Q13470 1-666): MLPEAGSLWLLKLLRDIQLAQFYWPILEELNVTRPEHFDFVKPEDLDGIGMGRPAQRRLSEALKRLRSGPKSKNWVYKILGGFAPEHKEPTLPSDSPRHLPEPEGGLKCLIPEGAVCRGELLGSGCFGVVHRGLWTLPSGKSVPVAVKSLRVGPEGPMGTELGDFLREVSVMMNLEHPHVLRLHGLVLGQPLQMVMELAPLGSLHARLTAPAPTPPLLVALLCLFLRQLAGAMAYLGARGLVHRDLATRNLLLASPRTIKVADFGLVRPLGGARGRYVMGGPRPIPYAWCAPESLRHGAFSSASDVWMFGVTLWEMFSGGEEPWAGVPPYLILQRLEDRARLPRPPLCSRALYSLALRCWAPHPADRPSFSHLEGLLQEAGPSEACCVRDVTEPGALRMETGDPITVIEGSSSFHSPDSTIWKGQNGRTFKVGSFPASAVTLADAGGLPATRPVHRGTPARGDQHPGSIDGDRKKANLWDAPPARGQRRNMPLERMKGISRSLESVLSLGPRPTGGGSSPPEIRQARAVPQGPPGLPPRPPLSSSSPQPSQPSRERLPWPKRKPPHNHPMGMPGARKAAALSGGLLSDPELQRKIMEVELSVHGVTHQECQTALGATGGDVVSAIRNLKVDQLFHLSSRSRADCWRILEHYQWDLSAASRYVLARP

A further assay has as its target T8, MNK1 (Homo sapiens, UniProt Q9BUB5).
T8 construct: purchased Carna Biosciences

A further assay concerns the target T9, p38α (Homo sapiens, UniProt Q16539).
T9 construct: purchased Carna Biosciences

The next assay has as its target T10, PIM1 (Homo sapiens, UniProt P11309).
T10 construct: purchased Carna Biosciences

The next assay has as its target T11, PKCα (Homo sapiens, UniProt P17252).
T11 construct: purchased Carna Biosciences

In a further assay the target is T12, skMLCK (Homo sapiens, UniProt Q9H1R3).
T12 construct: purchased Carna Biosciences

In a further assay the target is T13, TNIK (Homo sapiens, UniProt Q9UKE5).
T13 construct: purchased Carna Biosciences

T10 sequence (P11309 whole entry): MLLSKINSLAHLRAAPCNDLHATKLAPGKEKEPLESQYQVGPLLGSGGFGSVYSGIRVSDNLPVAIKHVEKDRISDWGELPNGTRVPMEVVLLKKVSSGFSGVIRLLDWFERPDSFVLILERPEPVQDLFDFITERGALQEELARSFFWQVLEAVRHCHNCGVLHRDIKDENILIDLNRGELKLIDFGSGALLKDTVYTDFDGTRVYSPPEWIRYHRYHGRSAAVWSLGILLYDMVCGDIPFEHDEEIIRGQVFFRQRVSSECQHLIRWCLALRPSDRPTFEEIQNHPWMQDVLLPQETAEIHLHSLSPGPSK
T3 sequence (P08069 31-1367): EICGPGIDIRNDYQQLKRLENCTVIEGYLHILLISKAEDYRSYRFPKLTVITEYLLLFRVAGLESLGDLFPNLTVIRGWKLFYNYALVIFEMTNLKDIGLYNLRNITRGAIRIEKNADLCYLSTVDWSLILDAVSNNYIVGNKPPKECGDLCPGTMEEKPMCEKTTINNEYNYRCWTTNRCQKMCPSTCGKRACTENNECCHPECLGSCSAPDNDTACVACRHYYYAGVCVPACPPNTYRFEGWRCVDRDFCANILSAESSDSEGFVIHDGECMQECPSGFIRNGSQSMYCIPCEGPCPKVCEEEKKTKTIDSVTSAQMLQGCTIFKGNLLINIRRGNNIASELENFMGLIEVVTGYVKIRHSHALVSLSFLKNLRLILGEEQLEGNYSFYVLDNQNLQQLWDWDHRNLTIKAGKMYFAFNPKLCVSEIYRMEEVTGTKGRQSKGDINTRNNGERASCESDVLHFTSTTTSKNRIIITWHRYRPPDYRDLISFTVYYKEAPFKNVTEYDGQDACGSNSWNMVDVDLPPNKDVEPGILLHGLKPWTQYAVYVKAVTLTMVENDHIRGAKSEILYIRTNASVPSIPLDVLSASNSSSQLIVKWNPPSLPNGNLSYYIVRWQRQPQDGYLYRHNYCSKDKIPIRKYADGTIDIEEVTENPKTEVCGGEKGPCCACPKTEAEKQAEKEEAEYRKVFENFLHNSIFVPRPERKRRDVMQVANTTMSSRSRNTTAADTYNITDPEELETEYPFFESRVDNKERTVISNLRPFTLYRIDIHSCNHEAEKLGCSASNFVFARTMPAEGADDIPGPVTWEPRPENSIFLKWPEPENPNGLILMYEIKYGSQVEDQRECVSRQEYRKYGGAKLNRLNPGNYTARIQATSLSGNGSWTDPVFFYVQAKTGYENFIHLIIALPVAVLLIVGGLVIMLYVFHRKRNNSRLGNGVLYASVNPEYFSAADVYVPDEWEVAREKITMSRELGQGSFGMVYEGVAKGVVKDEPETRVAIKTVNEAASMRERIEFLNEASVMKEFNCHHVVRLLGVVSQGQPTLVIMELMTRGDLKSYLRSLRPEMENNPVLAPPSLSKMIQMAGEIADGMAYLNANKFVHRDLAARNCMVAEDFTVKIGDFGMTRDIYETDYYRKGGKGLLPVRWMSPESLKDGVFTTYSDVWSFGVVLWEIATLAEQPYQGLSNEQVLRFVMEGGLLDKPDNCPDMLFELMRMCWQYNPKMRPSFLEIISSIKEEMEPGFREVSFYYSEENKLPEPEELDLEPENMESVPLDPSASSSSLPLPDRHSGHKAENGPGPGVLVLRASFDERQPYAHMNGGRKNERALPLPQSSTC
T4 sequence (P07948 1-491 isoform P07948-2): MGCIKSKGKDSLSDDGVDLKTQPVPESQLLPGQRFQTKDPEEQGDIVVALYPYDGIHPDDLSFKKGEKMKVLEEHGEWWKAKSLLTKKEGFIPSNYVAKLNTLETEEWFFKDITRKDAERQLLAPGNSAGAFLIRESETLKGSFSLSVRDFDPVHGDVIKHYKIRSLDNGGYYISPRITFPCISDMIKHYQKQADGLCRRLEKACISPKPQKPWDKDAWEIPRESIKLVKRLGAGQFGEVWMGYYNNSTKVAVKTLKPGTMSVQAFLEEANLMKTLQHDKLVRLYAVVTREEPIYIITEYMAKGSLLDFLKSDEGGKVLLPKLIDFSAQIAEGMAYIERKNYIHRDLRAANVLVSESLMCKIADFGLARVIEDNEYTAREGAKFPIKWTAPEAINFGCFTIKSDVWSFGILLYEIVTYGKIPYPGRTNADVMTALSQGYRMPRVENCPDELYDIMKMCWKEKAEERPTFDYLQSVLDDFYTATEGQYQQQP
T2 sequence (P06241 1-534 isoform P06241-2): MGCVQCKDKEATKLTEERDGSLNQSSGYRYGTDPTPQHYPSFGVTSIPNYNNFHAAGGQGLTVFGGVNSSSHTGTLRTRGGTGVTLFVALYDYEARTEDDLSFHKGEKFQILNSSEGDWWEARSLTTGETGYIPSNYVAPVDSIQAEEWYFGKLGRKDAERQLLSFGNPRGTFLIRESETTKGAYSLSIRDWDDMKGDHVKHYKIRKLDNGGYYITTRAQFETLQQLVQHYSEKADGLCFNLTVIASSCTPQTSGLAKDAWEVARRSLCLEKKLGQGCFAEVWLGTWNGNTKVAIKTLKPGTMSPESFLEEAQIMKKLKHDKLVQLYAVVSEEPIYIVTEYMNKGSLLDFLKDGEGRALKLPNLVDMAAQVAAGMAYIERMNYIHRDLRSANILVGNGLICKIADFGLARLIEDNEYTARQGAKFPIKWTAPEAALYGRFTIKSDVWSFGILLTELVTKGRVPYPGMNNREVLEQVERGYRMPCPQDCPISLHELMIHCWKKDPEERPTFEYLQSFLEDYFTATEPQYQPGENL
T8 sequence (Q9BUB5 whole entry): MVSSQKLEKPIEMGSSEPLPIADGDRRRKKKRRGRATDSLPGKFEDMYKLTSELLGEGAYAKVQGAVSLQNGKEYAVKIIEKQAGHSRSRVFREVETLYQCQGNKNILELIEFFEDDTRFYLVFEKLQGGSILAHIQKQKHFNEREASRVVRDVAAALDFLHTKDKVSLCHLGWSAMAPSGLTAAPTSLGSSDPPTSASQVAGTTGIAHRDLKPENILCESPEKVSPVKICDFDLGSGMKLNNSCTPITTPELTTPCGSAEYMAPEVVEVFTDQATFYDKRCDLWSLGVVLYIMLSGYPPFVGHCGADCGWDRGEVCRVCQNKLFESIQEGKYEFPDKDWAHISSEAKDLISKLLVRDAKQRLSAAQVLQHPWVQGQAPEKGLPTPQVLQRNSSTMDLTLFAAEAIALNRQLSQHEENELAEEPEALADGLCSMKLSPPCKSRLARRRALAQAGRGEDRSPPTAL
T12 sequence (Q9H1R3 whole entry): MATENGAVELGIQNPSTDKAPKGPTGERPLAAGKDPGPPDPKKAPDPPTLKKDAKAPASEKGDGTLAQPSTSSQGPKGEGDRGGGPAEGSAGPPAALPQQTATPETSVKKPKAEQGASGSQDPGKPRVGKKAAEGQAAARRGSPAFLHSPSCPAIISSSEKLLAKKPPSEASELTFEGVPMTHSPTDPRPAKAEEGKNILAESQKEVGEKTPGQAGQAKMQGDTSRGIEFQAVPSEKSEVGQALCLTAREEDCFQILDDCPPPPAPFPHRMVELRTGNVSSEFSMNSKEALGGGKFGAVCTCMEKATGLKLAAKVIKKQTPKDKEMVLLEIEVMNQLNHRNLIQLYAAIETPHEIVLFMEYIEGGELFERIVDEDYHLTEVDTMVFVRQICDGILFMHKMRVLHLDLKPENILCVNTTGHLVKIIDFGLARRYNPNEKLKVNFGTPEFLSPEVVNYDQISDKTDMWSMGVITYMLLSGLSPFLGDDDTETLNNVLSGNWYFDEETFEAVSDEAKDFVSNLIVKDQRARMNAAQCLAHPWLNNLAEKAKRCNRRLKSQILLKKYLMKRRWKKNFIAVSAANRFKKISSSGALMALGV
T9 sequence (Q16539 whole entry): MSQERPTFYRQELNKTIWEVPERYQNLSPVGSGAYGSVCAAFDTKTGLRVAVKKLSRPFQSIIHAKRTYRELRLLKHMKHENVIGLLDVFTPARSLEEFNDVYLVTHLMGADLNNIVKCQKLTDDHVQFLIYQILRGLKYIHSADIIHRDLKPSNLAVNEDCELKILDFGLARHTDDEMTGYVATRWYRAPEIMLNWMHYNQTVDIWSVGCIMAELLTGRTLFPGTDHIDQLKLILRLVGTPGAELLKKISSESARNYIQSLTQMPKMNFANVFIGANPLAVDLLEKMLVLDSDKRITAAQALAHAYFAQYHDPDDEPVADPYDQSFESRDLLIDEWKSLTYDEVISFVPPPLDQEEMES

As to `CC#CC(=O)N1CCC[C@H]1c1nc(-c2ccc(C(=O)Nc3ccccn3)cc2)c2c(N)nccn12` [acalabrutinib], the “Percentage inhibition of kinase enzyme activity” value (from here on “Percentage inhibition”) at DDR2 is listed as 6.23%; at FYN [isoform b] it was -1.25%; at IGF1R it was 0.47%; at LYNb, -1.97%; at RET, 13.72%; on TIE2, -5.36%. Moreover, the “Percentage inhibition” value is listed as -1.80% on TNK1; 11.59% on MNK1; -0.75% on p38α; -4.28% on PIM1; -16.89% at PKCα; -17.48% on skMLCK. Moreover, the “Percentage inhibition” value at TNIK is -0.81%.

In the case of `COc1ccc(F)cc1C(=O)NCc1ccc(-c2nn([C@@H](C)C(F)(F)F)c(N)c2C(N)=O)cc1` [pirtobrutinib], the “Percentage inhibition” value on DDR2 is given as 9.58%; at FYN [isoform b], 15.19%; on IGF1R, 0.28%; at LYNb, 26.06%; at RET, 51.77%; at TIE2, -3.49%. Moreover, the “Percentage inhibition” value on TNK1 is on record as 3.07%; at MNK1 it was 2.15%; at p38α it was -2.18%; on PIM1, 3.95%; on PKCα, 11.69%; at skMLCK it was -3.69%. Also, the “Percentage inhibition” value at TNIK was -3.38%.

Turning to `C=CC(=O)N1CCC[C@@H](n2nc(-c3ccc(Oc4ccccc4)cc3)c3c(N)ncnc32)C1` [ibrutinib], the “Percentage inhibition” value at DDR2 was determined as 17.34%; on FYN [isoform b], 86.77%; on IGF1R, 7.45%; on LYNb, 100.13%; on RET, 87.66%; on TIE2 it was 29.04%. Besides, the “Percentage inhibition” value at TNK1 is recorded as 6.17%; on MNK1, 14.52%; at p38α, -2.71%; on PKCα, 0.74%; at skMLCK, -16.74%; at TNIK, -1.62%.

With `O=C(c1ccc(Oc2ccccc2)cc1Cl)c1c[nH]c2ncnc(N[C@@H]3CC[C@@H](CO)OC3)c12` [nemtabrutinib], the “Percentage inhibition” value on DDR2 stood at 93.92%; on IGF1R, 99.20%; on LYNb, 66.12%; on RET, 98.99%; on TIE2 it was 99.74%; on TNK1 it was 75.62%. Also, the “Percentage inhibition” value at MNK1 is listed as 7.10%; at p38α, 2.09%; at PIM1, -15.07%; at PKCα, -0.64%; at skMLCK it was 2.60%; at TNIK it was 85.96%.

For the compound `C=CC(=O)N1CCC([C@@H]2CCNc3c(C(N)=O)c(-c4ccc(Oc5ccccc5)cc4)nn32)CC1` [zanubrutinib], the “Percentage inhibition” value at IGF1R worked out at 4.03%; on RET, 18.89%.
